Test [1] concerns HUVEC cells. The test can be described thus: Wound healing assay, HUVEC. The note with it: 11 h, 1% FBS and VEGF 50 ng/mL, control 32%. It counts as cell-based, human. As for the experimental part:
(§1) Figure 6 SQAP inhibits cell migration in vitro. (A) HUVEC cells were seeded and grown to 100% confluence in 60-mm diameter dishes. After generating a single scratch in the monolayer, the cells were cultured for 11 h in medium containing 1% FBS and VEGF (50 ng/mL) in the presence or absence of SQAP. Photographs were taken immediately after 11 h. (B) The change in wound width was measured as described in the Materials and Methods. (C) A549 cells were seeded and grown to 100% confluence in 60-mm diameter dishes. After generating a single scratch in the monolayer, the cells cultured for the 25 h in media containing 1% FBS and fibronectin (10 μg/ml) treated with SQAP or vehicle. Photographs were collected immediately after wounding and after 25 h. (D) The change in wound width was measured as described in the Materials and Methods. Cell migration was additionally examined in 96 well plates. HUVEC (E) and A549 cells (F) were seeded and grown into confluence overnight. After removing the stoppers, the live cells were stained with CellTracker^TM Green and incubated for the indicated time. The fluorescent emission signal was obtained with a plate reader. […]
Wound healing assay was analyzed by microscope imaging. […] Wound diameters in the images were measured and percentage of wound size was calculated as follows: [wound diameter at 11 or 25 h/wound diameter at 0 h] x 100.

In test [2] the target is T1, SCP-2 (400–547) (Homo sapiens, UniProt P22307).
T1 construct: DNA encoding SCP-2 (400–547) was amplified; made in house; host or cells: E. coli Rosetta 2 (DE3) pLysS
T1 sequence (P22307 400-547): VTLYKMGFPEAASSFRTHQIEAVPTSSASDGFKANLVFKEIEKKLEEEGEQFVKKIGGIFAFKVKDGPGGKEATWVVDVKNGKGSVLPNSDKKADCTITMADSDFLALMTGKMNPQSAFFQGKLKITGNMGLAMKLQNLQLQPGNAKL
Description: SPR analysis, immobilized His-tagged SCP-2 (400-547). It counts as binding. The conditions noted are these: Biacore 3000, CM5 chip, 25 °C, read-out: dissociation constant (KD) for SCP-2. From the text: SPR was utilized as an independent confirmation of the kinetic parameters between SQAP and the putative binding proteins. […] The recombinant proteins were then expressed in Escherichia coli and purified to homogeneity. In addition, full length, His-tagged ADRM1 and GST-tagged HR23B (GST-HR23B) were also used. The proteins were first immobilized on a CM5 sensor chip of the SPR biosensor (Biacore 3000). For GST-HR23B analysis, a GST protein was additionally immobilized and used as a control in order to eliminate possible nonspecific binding of SQAP. SQAP samples at different concentrations were then injected over the proteins immobilized on the sensor chip. As a negative control we used sulfoquynovosylpropanediol (SQP), which lacks the fatty acid moiety of SQAP (Fig. 1). […]
The binding kinetics of SCP-2, MFE-2, ADRM1, HR23B and FAK with SQAP and SQP were analyzed on a Biacore 3000 instrument (GE Healthcare, Little Chalfont, UK). […] The buffer of purified peptides was exchanged to HBS-P (150 mM NaCl, 0.005% Surfactant P20, 10 mM HEPES-NaOH pH 7.4) using a PD 10 column (GE Healthcare, Little Chalfont, UK) and the concentrations were quantified using DC protein assay kit (Bio-Rad Laboratories, Hercules, CA, USA). […] Kinetic parameters were determined by analyzing the data using BIAevaluation 4.1 software (GE Healthcare, Little Chalfont, UK).
On the technique in general: SPR reads the build-up and loss of mass on a sensor chip optically.

Test [3] relates to A549 cells. The test can be described thus: In vitro cell migration assay (Oris kit), A549. The note with it: A549, 96 well cell migration kit. It counts as cell-based, human. As to the method:
as §1, with “After removing the stoppers, the live cells were stained with CellTracker^TM Green and incubated for the indicated time.” left out
Wound healing was additionally assessed in HUVEC or A549 cells using a cell migration kit (Oris, Madison, WI, USA) as described by the manufacturer. […] The fluorescence emission signal in the migration zones was measured on a Wallac Arvo 5x microplate reader (Perkin Elmer, Waltham, MA, USA).

`CCCCCCCCCCCCCCCCCC(=O)OCCCO[C@H]1O[C@H](CS(=O)(=O)O)[C@@H](O)[C@H](O)[C@H]1O` [SQAP, sulfoquynovosylacylpropanediol]: the wound size in test [1] amounted to 62%. The Kd (in general, the concentration at which binding is half-saturated) in test [2] stood at 15.6 µM. The cell migration entry in test [3] is listed as “arrested”.

The values are drawn from PMC4601023, “Novel anticancer agent, SQAP, binds to focal adhesion kinase and modulates its activity” (Scientific Reports, 2015).
